Data: patent US8816129B2, “PTP1B inhibitors, synthesis thereof and application thereof in preparation of medicaments for treating type 2 diabetes mellitus” (Institute of Oceanology, Chinese Academy of Sciences, priority 2010, dated 2014)
Where two headings read alike, the source gives them in different places.

Tests used:
[1] = biological target: T1, human recombinant PTP1B (hGST-PTP1B) (Homo sapiens, UniProt P18031); experiment: PTP1B inhibitory assay (pNPP hydrolysis, absorbance at 405 nm); type: biochemical; conditions: 2 mM pNPP, 30 nM hGST-PTP1B, pH 6.5, 30° C.; for inhibition at 5 µg/mL: 5 μg/mL compound; for inhibition at 20 µg/mL: 20 μg/mL compound
T1 construct: made in house; host or cells: E. coli BL21
T1 sequence (P18031 1-435): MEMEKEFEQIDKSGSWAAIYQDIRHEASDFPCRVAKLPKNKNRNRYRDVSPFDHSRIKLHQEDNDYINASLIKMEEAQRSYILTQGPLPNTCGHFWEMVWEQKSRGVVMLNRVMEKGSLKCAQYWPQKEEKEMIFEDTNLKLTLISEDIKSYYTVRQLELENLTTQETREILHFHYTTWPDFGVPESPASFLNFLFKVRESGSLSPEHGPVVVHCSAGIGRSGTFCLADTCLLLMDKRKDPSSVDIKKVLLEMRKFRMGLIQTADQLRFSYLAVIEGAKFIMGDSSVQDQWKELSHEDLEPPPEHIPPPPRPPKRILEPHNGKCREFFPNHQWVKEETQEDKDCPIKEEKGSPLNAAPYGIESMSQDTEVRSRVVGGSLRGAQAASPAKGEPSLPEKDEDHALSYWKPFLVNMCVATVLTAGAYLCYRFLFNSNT
Description: Construct human recombinant PTP1B engineering bacteria hGST-PTP1B-BL21 via molecular biology methods, and purify it through GST-tagged affinity chromatography. The principle is that the product pNP, which is enzymolysis of pNPP by PTP1B, absorbs at 405 nm. The activity of PTP1B inhibition can be measured by calculating the quantity of pNP.
Compounds 1-12 were dissolved in DMSO. 2 μL of samples were placed into the system (50 mM Tris-HCl, pH 6.5, 2 mM pNPP, 2% DMSO, 30 nM hGST-PTP1B). DMSO was distributed as negative control and Na3VO4 was positive control. The reaction was at 30° C. and monitored at 405 nm for 3 min. Inhibitory rate was calculated according to the following formula: % inhibition=100% ×[(Vsample−VDMSO)/[…]]

PTP1B = biological target: T2, PTP1B (Homo sapiens, UniProt P18031); conditions: background statement; read-out: IC50 (PTP1B inhibitor); cited from earlier work
T2 sequence (P18031 1-435): T1 sequence (P18031 1-435)

SMILES | inhibition at 5 µg/mL [1] | inhibition at 20 µg/mL [1] | IC50 ([1]; read-out: IC50 (converted)) | IC50 [1] | IC50 (PTP1B)
COc1cc(C(=O)c2c(C(Br)Br)cc(OC)c(OC)c2Br)c(Br)c(Br)c1OC [Compound 1, (2′-bromo-6′-(dibromomethyl)-3′,4′-dimethoxyphenyl)-(2,3-dibromo-4,5-dimethoxyphenyl)-methanone] | 47.9% | 101% | 1840 nM | – | –
CCCCOCc1cc(O)c(O)c(Br)c1Cc1cc(O)c(O)c(Br)c1Br [Compound 4, 3,4-dibromo-5-[2′-bromo-6′-(butoxymethyl)-3′,4′-dihydroxy-benzyl]-benzene-1,2-diol] | 27.2% | 64.6% | – | – | –
CC(C)COCc1cc(O)c(O)c(Br)c1Cc1cc(O)c(O)c(Br)c1Br [Compound 5, 3,4-dibromo-5-[2′-bromo-3′,4′-dihydroxy-6′-(isobutoxymethyl)-benzyl]-benzene-1,2-diol] | 48.3% | 96.2% | – | 0.83 µg/mL | –
CCC(C)OCc1cc(O)c(O)c(Br)c1Cc1cc(O)c(O)c(Br)c1Br (centres unmarked) [Compound 6, 3,4-dibromo-5-(2-bromo-6-(sec-butoxymethyl)-3,4-dihydroxybenzyl)benzene-1,2-diol] | 42.4% | 96.5% | 1820 nM | – | –
CCCCOCc1cc(O)c(O)c(Br)c1Cc1c(Br)c(O)c(O)c(Br)c1Br [Compound 10, 3,4,6-tribromo-5-(2-bromo-6-(butoxymethyl)-3,4-dihydroxybenzyl)benzene-1,2-diol] | – | 99% | – | – | –
CC(C)COCc1cc(O)c(O)c(Br)c1Cc1c(Br)c(O)c(O)c(Br)c1Br [Compound 11, 3,4,6-tribromo-5-(2-bromo-3,4-dihydroxy-6-(isobutoxymethyl)benzyl)benzene-1,2-diol] | – | 101% | – | – | –
CCc1oc2ccccc2c1C(=O)c1cc(Br)c(O)c(Br)c1 [benzbromarone] | – | – | – | – | 26000 nM

Further lines, with some results ahead:

inhibition at 5 µg/mL [1] | inhibition at 20 µg/mL [1] | IC50 ([1]; read-out: IC50 (converted)) | SMILES | IC50 [1] | IC50 (PTP1B)
55.7% | 86.2% | – | CCCOCc1cc(O)c(O)c(Br)c1Cc1cc(O)c(O)c(Br)c1Br [Compound 2, 3,4-dibromo-5-[2′-bromo-3′,4′-dihydroxy-6′-(propoxymethyl)-benzyl]-benzene-1,2-diol] | 1.08 µg/mL | –
68.2% | 93.9% | 628 nM | CC(C)OCc1cc(O)c(O)c(Br)c1Cc1cc(O)c(O)c(Br)c1Br [Compound 3, 3,4-dibromo-5-[2′-bromo-3′,4′-dihydroxy-6′-(isopropoxymethyl)-benzyl]-benzene-1,2-diol] | – | –
– | 101% | – | COc1cc(Br)c(Cc2cc(OC)c(OC)c(Br)c2Cc2cc(OC)c(OC)c(Br)c2Br)cc1OC [Compound 7, 2,3-dibromo-1-[2′-bromo-6′-(2″-bromo-4″,5″-dimethoxybenzyl)-3′,4′-dimethoxybenzyl]-4,5-dimethoxybenzene] | – | –
42.4% | 98.8% | 1630 nM | CCCOCc1cc(O)c(O)c(Br)c1Cc1c(Br)c(O)c(O)c(Br)c1Br [Compound 8, 3,4,6-tribromo-5-(2-bromo-3,4-dihydroxy-6-(propoxymethyl)benzyl)benzene-1,2-diol] | – | –
– | 98.5% | – | CC(C)OCc1cc(O)c(O)c(Br)c1Cc1c(Br)c(O)c(O)c(Br)c1Br [Compound 9, 3,4,6-tribromo-5-(2-bromo-3,4-dihydroxy-6-(isopropoxymethyl)benzyl)benzene-1,2-diol] | – | –
– | 57.7% | – | Cc1cc(O)c(O)c(Br)c1Cc1c(Br)c(O)c(O)c(Br)c1Br [Compound 12, 3,4,6-tribromo-5-(2-bromo-3,4-dihydroxy-6-methylbenzyl)benzene-1,2-diol] | – | –
